Molecules are shown by their SMILES. Several values for one entry are separate records, joined by “and”; a condition that tells them apart may be missing. Equal values may be shown once. ± gives the expanded uncertainty stated by the source.

Here are results for two molecules from the NIST ThermoML archive (doi:10.1016/j.jct.2005.08.007).

The conditions of this series: Crystal, Calculated from knudsen effusion weight loss.

As to `O=[N+]([O-])c1cccc2ccccc12` [1-nitronaphthalene], the “vapor or sublimation pressure” value by setting is: (305.14 K) 0.0001735 ± 8.7e-06 kPa and 0.0001744 ± 8.7e-06 kPa and 0.0001738 ± 8.7e-06 kPa; (307.15 K) 0.0002252 ± 1.1e-05 kPa and 0.0002215 ± 1.1e-05 kPa and 0.000218 ± 1.1e-05 kPa; (309.16 K) 0.0002813 ± 1.4e-05 kPa and 0.0002824 ± 1.4e-05 kPa and 0.0002776 ± 1.4e-05 kPa; (311.15 K) 0.0003559 ± 1.8e-05 kPa and 0.0003531 ± 1.8e-05 kPa and 0.0003518 ± 1.8e-05 kPa; (313.15 K) 0.0004632 ± 2.3e-05 kPa and 0.0004566 ± 2.3e-05 kPa and 0.0004531 ± 2.3e-05 kPa; (315.13 K) 0.0005799 ± 2.9e-05 kPa and 0.0005723 ± 2.9e-05 kPa and 0.0005739 ± 2.9e-05 kPa. Further, the “vapor or sublimation pressure” value runs as follows: (317.13 K) 0.0006969 ± 3.5e-05 kPa and 0.0007016 ± 3.5e-05 kPa and 0.0006949 ± 3.5e-05 kPa; (319.17 K) 0.0008754 ± 4.4e-05 kPa and 0.0008956 ± 4.5e-05 kPa and 0.0008803 ± 4.4e-05 kPa; (321.14 K) 0.001127 ± 0.00012 kPa and 0.001114 ± 0.00011 kPa and 0.001108 ± 0.00011 kPa.
On to `O=[N+]([O-])c1c2ccccc2cc2ccccc12` [9-nitroanthracene], for which the “vapor or sublimation pressure” value was 0.00019 ± 1e-05 kPa and 0.000196 ± 1e-05 kPa and 0.000195 ± 1e-05 kPa (361.11 K); 0.000236 ± 1.2e-05 kPa and 0.000238 ± 1.2e-05 kPa (363.08 K); 0.000291 ± 1.5e-05 kPa and 0.000294 ± 1.5e-05 kPa (365.26 K); 0.000354 ± 1.8e-05 kPa and 0.000339 ± 1.7e-05 kPa and 0.000342 ± 1.7e-05 kPa (367.09 K); 0.000431 ± 2.2e-05 kPa and 0.000439 ± 2.2e-05 kPa and 0.000427 ± 2.1e-05 kPa (369.04 K); 0.000532 ± 2.7e-05 kPa and 0.000526 ± 2.6e-05 kPa and 0.000534 ± 2.7e-05 kPa (371.26 K). Also, the “vapor or sublimation pressure” value reads like this: (373.26 K) 0.00064 ± 3.2e-05 kPa and 0.000643 ± 3.2e-05 kPa and 0.000647 ± 3.2e-05 kPa; (375 K) 0.000772 ± 3.9e-05 kPa and 0.000773 ± 3.9e-05 kPa and 0.000761 ± 3.8e-05 kPa; (377.06 K) 0.000928 ± 4.6e-05 kPa and 0.000924 ± 4.6e-05 kPa.
